The text below walks through data of US7034053B2, “Phenethanolamine derivatives, compositions, and their use as agonists at atypical beta-adrenoreceptors” (SmithKline Beecham Corporation, priority 2001, dated 2006).

SMILES strings stand for the structures.

On to `O=C(O)c1ccoc1-c1cccc(NCCNC[C@H](O)c2cccc(Cl)c2)c1` [Example 2, 2-(3-{[2-(3-Chlorophenyl)-2R-hydroxyl-ethylamino]ethylamino}phenyl)furan-3-carboxylic acid], for which the melting point is 250 °C (dec.).

In the case of `O=C(O)c1ccsc1-c1cccc(NCCNC[C@H](O)c2cccc(Cl)c2)c1` [Example 5, 2-(3-{[2-(3-Chlorophenyl)-2R-hydroxyl-ethylamino]ethylamino}phenyl)thiophene-3-carboxylic acid], the melting point was 275 °C (dec.).
